Test results as given in patent publication US6720008B2, “Composition and method for the encapsulation of water-soluble molecules into nanoparticles” (PR Pharmaceuticals, Inc., priority 2002, dated 2004).

Experiment: Solubility of eosin in oil and organic solvent
Format: physicochemical
Description: A water/oil microemulsion was prepared as follows: 1.0 ml isopropyl myristate was added to 1.4 ml of a surfactant mixture consisting of polyoxyethylene sorbitan monooleate (Tween 80): sorbitan monolaurate (Span 20): ethanol in a 45:30:25 volume ratio. Next, 0.6 ml of a 6% (w/v) eosin Y solution was added and the mixture briefly vortexed until an optically clear, single phase solution resulted (it was confirmed that eosin was not soluble in the oil or the ethyl acetate prior to formulation of the microemulsion nanocapsules).
A water/oil microemulsion was prepared by adding 0.5 ml hexadecane to a surfactant mixture consisting of polyoxyethylene sorbitan monooleate (Tween 80): sorbitan monolaurate (Span 20): ethanol in a 45:30:25 volume ratio. To that mixture, 0.35 ml of a 6% (w/v) eosin Y solution was added. […] Nanoparticles were formed and the eosin encapsulation was measured as described in Example 1. The amount of eosin incorporated into nanocapsules was 98% of the initial quantity added.

## O=C1OC2(c3ccccc31)c1cc(Br)c(O)c(Br)c1Oc1c2cc(Br)c(O)c1Br [eosin, eosin Y]
Conditions of Example 2
  solubility of eosin in hexadecane: not to be soluble
Oil = isopropyl myristate, prior to formulation of the microemulsion nanocapsules
  solubility of eosin in the oil or the ethyl acetate: not soluble
